Results reported in US9340577B2, “HLA binding motifs and peptides and their uses” (priority 1992, dated 2016).
Like-named read-outs stand apart in the source and are kept apart here. No end group written: not given here.

How the values were obtained:
Assay in all cases: biochemical
DRB1*1201 = DRB1*1201 (Homo sapiens, UniProt P01903+P01911, A100R/A169T/D57E/D86V/F55L/H45Y/K41T/L162R/M171V/P40S/Q125H/Q178H/Q39Y/Q99D/R42G/S66L/T262R/V114A/V67L/W38E/Y59H/Y61H/Y89S); format: binding
DR1 (DRB1*0101) = DR1 (DRB1*0101) (Homo sapiens, UniProt P01903+P01911, A100R/D57E/F55L/F60I/F76Y/I96L/L162R/M171V/P40L/Q125E/R42F/V115G/Y59C); format: binding
DRB4*0101 = DRB4*0101 (Homo sapiens, UniProt P01903+P13762, G164S); format: binding
DRB1*0405 = DRB1*0405 (Homo sapiens, UniProt P01903+P01911, A100R/A169T/D86S/F76Y/I96L/K127E/L162R/M171V/N62H/P40V/Q125Y/R42H/S133A/S149N/S66Y/V115G/V209L/W38E); format: binding
DRB1*1101 = DRB1*1101 (Homo sapiens, UniProt P01903+P01911, A100R/A169T/A87E/I96F/K41T/L162R/M171V/P40S/Q125H/Q178H/Q39Y/Q99D/R42S/S66Y/T262R/V115G/W38E)
Sequence of DRB1*1101 (P01903 26-254 limits assumed, other chains not shown): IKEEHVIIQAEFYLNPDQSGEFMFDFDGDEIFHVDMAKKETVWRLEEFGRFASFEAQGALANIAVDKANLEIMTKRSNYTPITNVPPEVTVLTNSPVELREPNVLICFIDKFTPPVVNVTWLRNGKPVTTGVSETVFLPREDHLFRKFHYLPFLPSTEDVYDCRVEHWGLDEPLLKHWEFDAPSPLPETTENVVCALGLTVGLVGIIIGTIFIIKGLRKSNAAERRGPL

DR7 (DRB1*0701) = DR7 (DRB1*0701) (Homo sapiens, UniProt P01903+P01911, A100R/A102G/A103Q/D57E/D86V/E43K/F76Y/K127E/L162R/M171V/P40G/Q125H/Q99D/R33Q/R42Y/R54Q/S133A/S66F/T210M/V115G/Y107V/Y59L/Y89S); format: binding
DRB1*0802 = DRB1*0802 (Homo sapiens, UniProt P01903+P01911, A100R/A103L/A169T/F76Y/H45Y/I96F/K41T/L162R/M171V/P40S/Q125H/Q178H/Q39Y/Q99D/R218S/R42G/S66Y/V115G/W38E); format: binding
DRB5*0101 = DRB5*0101 (Homo sapiens, UniProt P01903+Q30154)
DRB1*1501 = DRB1*1501 (Homo sapiens, UniProt P01903+P01911); format: binding
DR4w4 (DRB1*0401) = DR4w4 (DRB1*0401) (Homo sapiens, UniProt P01903+P01911, A100K/A169T/F76Y/I96L/K127E/L162R/M171V/N62H/P40V/Q125Y/R42H/S133A/S149N/S66Y/V115G/V209L/W38E); format: binding
DRB1*1302 = DRB1*1302 (Homo sapiens, UniProt P01903+P01911, A100E/A169T/K41T/L162R/M171V/P40S/Q125H/Q178H/Q39Y/Q99D/R42S/S66N/T262R/V115G/W38E/Y61H); format: binding
Sequence of DRB1*1302 (P01903 26-254 limits assumed, other chains not shown): as above

DRB1*0901 = DRB1*0901 (Homo sapiens, UniProt P01903+P01911, A100R/A103E/D57H/D86V/F55Y/F60I/F76Y/I96F/K127E/L162R/M171V/P40D/Q125H/Q99R/R33Q/R42F/S133A/S66N/T210M/V115G/W38K/Y107V/Y59G/Y89S); format: binding

| Compound | IC50 (DRB1*1201) [µM] | IC50 (DR1 (DRB1*0101)) [µM] | IC50 (DRB4*0101) [µM] | IC50 (DRB1*0405) [µM] | IC50 (DRB1*1101; Binding affinity DRB1 *1101) [µM] | IC50 (DR7 (DRB1*0701)) [µM] | IC50 (DRB1*0802) [µM] | IC50 (DRB5*0101; Binding affinity DRB5 *0101) [µM] | IC50 (DRB1*1501) [µM] | IC50 (DR4w4 (DRB1*0401)) [µM] | IC50 (DRB1*1302) [µM] | IC50 (DRB1*0901) [µM] | IC50 (DRB1*1101) [µM] | IC50 (DRB5*0101) [µM] |
| --- | --- | --- | --- | --- | --- | --- | --- | --- | --- | --- | --- | --- | --- | --- |
| CC(C)C[C@H](NC(=O)[C@H](CCC(=O)O)NC(=O)[C@H](CCCCN)NC(=O)[C@H](C)N)C(=O)N[C@@H](CCCCN)C(=O)N[C@@H](Cc1ccccc1)C(=O)N[C@H](C(=O)N[C@H](C(=O)N[C@@H](CC(C)C)C(=O)N[C@H](C(=O)N[C@@H](Cc1ccccc1)C(=O)N[C@@H](CCCNC(=N)N)C(=O)N[C@@H](Cc1c[nH]cn1)C(=O)NCC(=O)N[C@@H](CC(=O)O)C(=O)O)C(C)C)[C@@H](C)O)C(C)C [68,0025] | 0.693 |  |  |  |  |  |  |  |  |  |  |  |  |  |
| CC[C@H](C)[C@H](N)C(=O)N[C@@H](CC(C)C)C(=O)N[C@@H](CC(C)C)C(=O)N[C@@H](Cc1c[nH]c2ccccc12)C(=O)N[C@@H](CCC(N)=O)C(=O)N1CCC[C@H]1C(=O)N[C@H](C(=O)N1CCC[C@H]1C(=O)N[C@H](C(=O)N[C@@H](Cc1c[nH]cn1)C(=O)N[C@H](C(=O)N[C@H](C(=O)N1CCC[C@H]1C(=O)N[C@@H](CC(C)C)C(=O)N[C@@H](CO)C(=O)O)C(C)C)[C@@H](C)O)C(C)C)[C@@H](C)CC [68,0038] | 7.29 |  |  |  |  |  |  |  |  |  |  |  |  |  |
| CC[C@H](C)[C@H](NC(=O)[C@H](CCCCN)NC(=O)[C@H](C)NC(=O)[C@@H]1CCCN1C(=O)[C@H](CCC(=O)O)NC(=O)[C@H](CO)NC(=O)[C@H](CC(C)C)NC(=O)[C@H](CCCNC(=N)N)NC(=O)[C@H](CC(C)C)NC(=O)[C@H](CC(C)C)NC(=O)[C@H](CCSC)NC(=O)[C@H](CC(C)C)NC(=O)[C@H](CC(=O)O)NC(=O)[C@@H](N)Cc1c[nH]cn1)C(=O)N[C@H](C(=O)O)[C@@H](C)O [Peptide 68.0011] | 0.084 |  |  |  |  |  |  |  |  |  |  |  |  |  |
| DSEIAYKYAQLADTN [Peptide 89.0012] |  | 0.734 | 0.275 | 11 | 3.54 | > 20 | 1.12 | 19.6 | 3.44 | 1.95 | > 20 | 1.93 |  |  |
| DSQIAFQYAQLADVD [Peptide 89.0130] |  | > 20 | 0.014 | 9.99 |  | > 20 | > 20 |  | > 20 | 3 | > 20 | > 20 | > 20 | 17.1 |
| EVHVGGQVIVCPASV [Peptide 90.0015] |  | 4.09 | 0.389 | 6.78 | > 20 | 0.187 | > 20 | > 20 | > 20 | 2.1 | 0.152 | 2.6 |  |  |
| EVHVGGQVIVCPTSI [Peptide 89.0184] |  | > 20 | > 20 | 0.557 | > 20 | > 20 | > 20 | > 20 | > 20 | > 20 | > 20 | > 20 |  |  |
| GKSYFGMSLISFLQG [Peptide 89.0056] |  | 0.17 | 1.96 | 1.23 | 0.9 | 0.284 | 6.02 | > 20 | 4.79 | 1.09 | 1.34 | 0.512 |  |  |
| HCTLYTAVSSTWHWT [Peptide 89.0157] |  | 2.89 | > 20 | > 20 | > 20 | > 20 | > 20 | > 20 | > 20 | 19 | 0.867 | > 20 |  |  |
| IHFLKGCIISYVNSK [Peptide 89.0147] |  | > 20 | 1.36 | > 20 | > 20 | 6.49 | > 20 | > 20 | > 20 | 3.84 | > 20 | > 20 |  |  |
| LIKFFQGSVISFVNS [Peptide 89.0135] |  | > 20 | 3.73 | > 20 |  | > 20 | 7.98 |  | > 20 | > 20 | 0.071 | > 20 | > 20 | > 20 |
| LKRFLQGIPKKNCIL [Peptide 89.0016] |  | 0.069 | 1.7 | > 20 | 2.54 | > 20 | 3.29 | 0.0055 | 3.62 | 0.944 | > 20 | 7.67 |  |  |
| LKTVKIPNTVQVIQG [Peptide 90.0017] |  | 8.18 | > 20 | 19.2 | > 20 | 0.777 | > 20 | > 20 | > 20 | > 20 | 0.033 | > 20 |  |  |
| LSQVKIPKTITVSTG [Peptide 89.0158] |  | 4.5 | > 20 | > 20 | 3.63 | 5.83 | > 20 | > 20 | 1.91 | 0.373 | > 20 | 5.48 |  |  |
| LVQIKCPPLLITTNI [Peptide 89.0138] |  | > 20 | 0.018 | > 20 |  | > 20 | > 20 |  | > 20 | > 20 | > 20 | > 20 | > 20 | > 20 |
| NHQVVPALSVSKAKA [Peptide 89.0168] |  | > 20 | > 20 | > 20 | > 20 | > 20 | > 20 | > 20 | 7.34 | 0.959 | 0.9 | > 20 |  |  |
| NSIFDFGEMVQWAYD [Peptide 89.0106] |  | 4.85 | 3.95 | > 20 | > 20 | 5.98 | > 20 | > 20 | 9.98 | 5.25 | 0.532 | > 20 |  |  |
| QQQMFLGTVKIPPTV [Peptide 89.0187] |  | 0.743 | 1.59 | 6.33 | 5.88 | > 20 | 7.29 | > 20 | 1 | 0.07 | 3.34 | > 20 |  |  |
| RNLVDGNPISLDRKH [Peptide 89.0137] |  | 11.2 | 0.992 | > 20 |  | 7.38 | > 20 |  | > 20 | 1.04 | > 20 | > 20 | > 20 | > 20 |
| RQHLANHPAATHTKA [Peptide 89.0155] |  | > 20 | > 20 | > 20 | 16 | > 20 | > 20 | > 20 | 8.66 | > 20 | 0.878 | > 20 |  |  |
| SQLLNIPETHMVIEP [Peptide 89.0102] |  | > 20 | 0.807 | > 20 | > 20 | > 20 | > 20 | > 20 | > 20 | > 20 | > 20 | > 20 |  |  |
